Data published in US12427157B2, “Methods for treatment of diseases involving acidic or hypoxic diseased tissues” (Cybrexa 1, Inc., priority 2018, dated 2025).
Residues, ends and D or L forms follow the SMILES beside them. *: point of attachment. X9 = C[C@@H](COC(=O)N(C)Cc1ccc(-c2[nH]c3cc(F)cc4c3c2CCNC4=O)cc1)S*; X14 = C[C@@H](COC(=O)N1CCC[C@]1(C)c1nc2c(C(N)=O)cccc2[nH]1)S*; X16 = C[C@H](COC(=O)N1CCC[C@]1(C)c1nc2c(C(N)=O)cccc2[nH]1)S*; X19 = CN(Cc1ccc(-c2[nH]c3cc(F)cc4c3c2CCNC4=O)cc1)C(=O)OCCS*

Molecular target: PARP (Homo sapiens, UniProt P09874)
Assay: Enzymatic Assay 2: HT Universal Chemiluminescent PARP Assay of cleaved compounds;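 further: PARP reaction with activated DNA run 1 h at room temperature, product detected via streptavidin-HRP and luminescence endpoint reading on a plate reader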
Details: read-out: IC50 Enzymatic Assay 2; Examples cleaved per Example A (crude cleavage solution); R^8H starting materials as such
Procedure: An equal volume of 1×PARP cocktail containing activated DNA was added to each well and the reaction was incubated for one hour at room temperature. The wells were washed twice with 1×PBS+0.1% Triton X-100 and twice with PBS. 50 ul/well of diluted streptavidin-HRP was added and the wells were incubated for one hour at room temperature. The wells were washed twice with 1×PBS+0.1% Triton X-100 and washed twice with PBS. The liquid was 5 removed, 100 ul/well 1:1 PeroxyGlow A/PeroxyGlow B was added and the chemiluminescent readings were measured on a BioTek Cytation 5 plate reader using the luminescence fiber endpoint.

Sequence of PARP (P09874 whole entry): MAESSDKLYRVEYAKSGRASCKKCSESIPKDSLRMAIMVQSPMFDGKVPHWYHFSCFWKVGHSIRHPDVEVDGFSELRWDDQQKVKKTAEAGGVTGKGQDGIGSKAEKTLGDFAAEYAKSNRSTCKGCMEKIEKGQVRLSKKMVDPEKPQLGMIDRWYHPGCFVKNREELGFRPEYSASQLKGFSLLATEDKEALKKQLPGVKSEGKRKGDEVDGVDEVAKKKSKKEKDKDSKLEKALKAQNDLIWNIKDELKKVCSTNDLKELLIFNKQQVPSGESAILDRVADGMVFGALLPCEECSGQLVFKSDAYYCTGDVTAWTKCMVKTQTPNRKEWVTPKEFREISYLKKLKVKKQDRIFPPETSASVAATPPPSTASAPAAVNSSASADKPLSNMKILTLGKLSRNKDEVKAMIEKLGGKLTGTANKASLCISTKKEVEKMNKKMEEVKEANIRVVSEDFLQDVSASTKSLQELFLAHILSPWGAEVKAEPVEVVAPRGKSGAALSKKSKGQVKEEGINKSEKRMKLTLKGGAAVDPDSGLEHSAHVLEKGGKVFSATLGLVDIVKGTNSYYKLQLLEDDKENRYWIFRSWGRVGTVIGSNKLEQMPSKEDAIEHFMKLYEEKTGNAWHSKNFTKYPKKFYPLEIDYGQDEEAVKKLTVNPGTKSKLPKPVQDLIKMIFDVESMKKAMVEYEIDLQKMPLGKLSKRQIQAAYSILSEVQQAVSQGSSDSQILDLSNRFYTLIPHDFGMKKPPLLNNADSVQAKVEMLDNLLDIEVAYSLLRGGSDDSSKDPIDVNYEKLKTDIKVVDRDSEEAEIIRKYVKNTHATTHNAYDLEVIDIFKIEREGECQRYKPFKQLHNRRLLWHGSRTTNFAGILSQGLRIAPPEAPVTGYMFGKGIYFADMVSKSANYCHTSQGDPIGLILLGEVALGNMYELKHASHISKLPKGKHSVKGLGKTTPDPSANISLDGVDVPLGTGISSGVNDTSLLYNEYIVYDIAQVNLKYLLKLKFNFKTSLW

| SMILES | IC50 |
| --- | --- |
| CC(C)C[C@H](NC(=O)[C@H](Cc1ccc(O)cc1)NC(=O)[C@H](C)NC(=O)[C@H](CCCNC(=N)N)NC(=O)[C@H](Cc1c[nH]c2ccccc12)NC(=O)[C@@H]1CCCN1C(=O)[C@H](CC(N)=O)NC(=O)[C@H](CCC(N)=O)NC(=O)[C@H](CC(=O)O)NC(=O)[C@H](CC(=O)O)NC(=O)[C@H](C)N)C(=O)N[C@@H](CC(=O)O)C(=O)N[C@@H](CC(C)C)C(=O)N[C@@H](CC(C)C)C(=O)N[C@@H](Cc1ccccc1)C(=O)N1CCC[C@H]1C(=O)N[C@H](C(=O)N[C@@H](CC(=O)O)C(=O)N[C@H](C(=O)N[C@@H](CC(C)C)C(=O)N[C@@H](CC(C)C)C(=O)N[C@@H](CC(C)C)C(=O)N[C@@H](CC(=O)O)C(=O)N[C@@H](CC(C)C)C(=O)N[C@@H](CC(C)C)C(=O)N[C@@H](Cc1c[nH]c2ccccc12)C(=O)N[C@@H](CC(=O)O)C(=O)N[C@@H](C)C(=O)N[C@@H](CC(=O)O)C(=O)N[C@@H](CCC(=O)O)C(=O)N[C@@H](CSS[C@H](C)COC(=O)N1CCC[C@@H](c2ccc(-n3cc4cccc(C(N)=O)c4n3)cc2)C1)C(=O)NCC(=O)O)[C@@H](C)O)[C@@H](C)O [Example 45] | 3.2 nM |
| CC[C@H](C)[C@H](NC(=O)[C@@H]1CCCN1C(=O)[C@H](CC(N)=O)NC(=O)[C@H](CCC(N)=O)NC(=O)[C@H](CCC(=O)O)NC(=O)[C@H](C)N)C(=O)N[C@@H](Cc1ccc(O)cc1)C(=O)N[C@@H](Cc1c[nH]c2ccccc12)C(=O)N[C@@H](C)C(=O)N[C@@H](CCCNC(=N)N)C(=O)N[C@@H](Cc1ccc(O)cc1)C(=O)N[C@@H](C)C(=O)N[C@@H](CC(=O)O)C(=O)N[C@@H](Cc1c[nH]c2ccccc12)C(=O)N[C@@H](CC(C)C)C(=O)N[C@@H](Cc1ccccc1)C(=O)N[C@H](C(=O)N[C@H](C(=O)N1CCC[C@H]1C(=O)N[C@@H](CC(C)C)C(=O)N[C@@H](CC(C)C)C(=O)N[C@@H](CC(C)C)C(=O)N[C@@H](CC(C)C)C(=O)N[C@@H](CC(=O)O)C(=O)N[C@@H](CC(C)C)C(=O)N[C@@H](C)C(=O)N[C@@H](CC(C)C)C(=O)N[C@@H](CC(C)C)C(=O)N[C@H](C(=O)N[C@@H](CC(=O)O)C(=O)N[C@@H](C)C(=O)N[C@@H](CC(=O)O)C(=O)N[C@@H](CCC(=O)O)C(=O)N[C@@H](CSS[C@H](C)COC(=O)N1CCC[C@]1(C)c1nc2c(C(N)=O)cccc2[nH]1)C(=O)NCC(=O)O)C(C)C)[C@@H](C)O)[C@@H](C)O [Example 54] (H-AEQNPIYWARYADWLFTTPLLLLDLALLVDADEC(X16)G-OH; N-terminus and C-terminus assumed) | 0.6 nM |
| CC(C)C[C@H](NC(=O)[C@H](Cc1ccc(O)cc1)NC(=O)[C@H](C)NC(=O)[C@H](CCCNC(=N)N)NC(=O)[C@H](Cc1c[nH]c2ccccc12)NC(=O)[C@@H]1CCCN1C(=O)[C@H](CC(N)=O)NC(=O)[C@H](CCC(N)=O)NC(=O)[C@H](CC(=O)O)NC(=O)[C@H](CC(=O)O)NC(=O)[C@H](C)N)C(=O)N[C@@H](CC(=O)O)C(=O)N[C@@H](CC(C)C)C(=O)N[C@@H](CC(C)C)C(=O)N[C@@H](Cc1ccccc1)C(=O)N1CCC[C@H]1C(=O)N[C@H](C(=O)N[C@@H](CC(=O)O)C(=O)N[C@H](C(=O)N[C@@H](CC(C)C)C(=O)N[C@@H](CC(C)C)C(=O)N[C@@H](CC(C)C)C(=O)N[C@@H](CC(=O)O)C(=O)N[C@@H](CC(C)C)C(=O)N[C@@H](CC(C)C)C(=O)N[C@@H](Cc1c[nH]c2ccccc12)C(=O)N[C@@H](CC(=O)O)C(=O)N[C@@H](C)C(=O)N[C@@H](CC(=O)O)C(=O)N[C@@H](CCC(=O)O)C(=O)N[C@@H](CSSc1ccc(COC(=O)N(C)Cc2ccc(-c3[nH]c4cc(F)cc5c4c3CCNC5=O)cc2)cc1)C(=O)NCC(=O)O)[C@@H](C)O)[C@@H](C)O [Example 37] | 3.1 nM |
| CC[C@H](C)[C@H](NC(=O)[C@@H]1CCCN1C(=O)[C@H](CC(N)=O)NC(=O)[C@H](CCC(N)=O)NC(=O)[C@H](CCC(=O)O)NC(=O)[C@H](C)N)C(=O)N[C@@H](Cc1ccc(O)cc1)C(=O)N[C@@H](Cc1c[nH]c2ccccc12)C(=O)N[C@@H](C)C(=O)N[C@@H](CCCNC(=N)N)C(=O)N[C@@H](Cc1ccc(O)cc1)C(=O)N[C@@H](C)C(=O)N[C@@H](CC(=O)O)C(=O)N[C@@H](Cc1c[nH]c2ccccc12)C(=O)N[C@@H](CC(C)C)C(=O)N[C@@H](Cc1ccccc1)C(=O)N[C@H](C(=O)N[C@H](C(=O)N1CCC[C@H]1C(=O)N[C@@H](CC(C)C)C(=O)N[C@@H](CC(C)C)C(=O)N[C@@H](CC(C)C)C(=O)N[C@@H](CC(C)C)C(=O)N[C@@H](CC(=O)O)C(=O)N[C@@H](CC(C)C)C(=O)N[C@@H](C)C(=O)N[C@@H](CC(C)C)C(=O)N[C@@H](CC(C)C)C(=O)N[C@H](C(=O)N[C@@H](CC(=O)O)C(=O)N[C@@H](C)C(=O)N[C@@H](CC(=O)O)C(=O)N[C@@H](CCC(=O)O)C(=O)N[C@@H](CSS[C@@H](C)COC(=O)N(C)Cc1ccc(-c2[nH]c3cc(F)cc4c3c2CCNC4=O)cc1)C(=O)NCC(=O)O)C(C)C)[C@@H](C)O)[C@@H](C)O [Example 22] (H-AEQNPIYWARYADWLFTTPLLLLDLALLVDADEC(X9)G-OH; N-terminus and C-terminus assumed) | 1.8 nM |
| CC(C)C[C@H](NC(=O)[C@H](Cc1ccc(O)cc1)NC(=O)[C@H](C)NC(=O)[C@H](CCCNC(=N)N)NC(=O)[C@H](Cc1c[nH]c2ccccc12)NC(=O)[C@@H]1CCCN1C(=O)[C@H](CC(N)=O)NC(=O)[C@H](CCC(N)=O)NC(=O)[C@H](CC(=O)O)NC(=O)[C@H](CC(=O)O)NC(=O)[C@H](C)N)C(=O)N[C@@H](CC(=O)O)C(=O)N[C@@H](CC(C)C)C(=O)N[C@@H](CC(C)C)C(=O)N[C@@H](Cc1ccccc1)C(=O)N1CCC[C@H]1C(=O)N[C@H](C(=O)N[C@@H](CC(=O)O)C(=O)N[C@H](C(=O)N[C@@H](CC(C)C)C(=O)N[C@@H](CC(C)C)C(=O)N[C@@H](CC(C)C)C(=O)N[C@@H](CC(=O)O)C(=O)N[C@@H](CC(C)C)C(=O)N[C@@H](CC(C)C)C(=O)N[C@@H](Cc1c[nH]c2ccccc12)C(=O)N[C@@H](CC(=O)O)C(=O)N[C@@H](C)C(=O)N[C@@H](CC(=O)O)C(=O)N[C@@H](CCC(=O)O)C(=O)N[C@@H](CSS[C@H](C)COC(=O)N1CCC[C@]1(C)c1nc2c(C(N)=O)cccc2[nH]1)C(=O)NCC(=O)O)[C@@H](C)O)[C@@H](C)O [Example 51] | 0.9 nM |
| CC[C@H](C)[C@H](NC(=O)[C@@H]1CCCN1C(=O)[C@H](CC(N)=O)NC(=O)[C@H](CCC(N)=O)NC(=O)[C@H](CCC(=O)O)NC(=O)[C@H](C)N)C(=O)N[C@@H](Cc1ccc(O)cc1)C(=O)N[C@@H](Cc1c[nH]c2ccccc12)C(=O)N[C@@H](C)C(=O)N[C@@H](CCCNC(=N)N)C(=O)N[C@@H](Cc1ccc(O)cc1)C(=O)N[C@@H](C)C(=O)N[C@@H](CC(=O)O)C(=O)N[C@@H](Cc1c[nH]c2ccccc12)C(=O)N[C@@H](CC(C)C)C(=O)N[C@@H](Cc1ccccc1)C(=O)N[C@H](C(=O)N[C@H](C(=O)N1CCC[C@H]1C(=O)N[C@@H](CC(C)C)C(=O)N[C@@H](CC(C)C)C(=O)N[C@@H](CC(C)C)C(=O)N[C@@H](CC(C)C)C(=O)N[C@@H](CC(=O)O)C(=O)N[C@@H](CC(C)C)C(=O)N[C@@H](C)C(=O)N[C@@H](CC(C)C)C(=O)N[C@@H](CC(C)C)C(=O)N[C@H](C(=O)N[C@@H](CC(=O)O)C(=O)N[C@@H](C)C(=O)N[C@@H](CC(=O)O)C(=O)N[C@@H](CCC(=O)O)C(=O)N[C@@H](CSS[C@@H](C)COC(=O)N1CCC[C@]1(C)c1nc2c(C(N)=O)cccc2[nH]1)C(=O)NCC(=O)O)C(C)C)[C@@H](C)O)[C@@H](C)O [Example 55] (H-AEQNPIYWARYADWLFTTPLLLLDLALLVDADEC(X14)G-OH; N-terminus and C-terminus assumed) | 0.7 nM |
| CC[C@H](C)[C@H](NC(=O)[C@@H]1CCCN1C(=O)[C@H](CC(N)=O)NC(=O)[C@H](CCC(N)=O)NC(=O)[C@H](CCC(=O)O)NC(=O)[C@H](C)N)C(=O)N[C@@H](Cc1ccc(O)cc1)C(=O)N[C@@H](Cc1c[nH]c2ccccc12)C(=O)N[C@@H](C)C(=O)N[C@@H](CCCNC(=N)N)C(=O)N[C@@H](Cc1ccc(O)cc1)C(=O)N[C@@H](C)C(=O)N[C@@H](CC(=O)O)C(=O)N[C@@H](Cc1c[nH]c2ccccc12)C(=O)N[C@@H](CC(C)C)C(=O)N[C@@H](Cc1ccccc1)C(=O)N[C@H](C(=O)N[C@H](C(=O)N1CCC[C@H]1C(=O)N[C@@H](CC(C)C)C(=O)N[C@@H](CC(C)C)C(=O)N[C@@H](CC(C)C)C(=O)N[C@@H](CC(C)C)C(=O)N[C@@H](CC(=O)O)C(=O)N[C@@H](CC(C)C)C(=O)N[C@@H](C)C(=O)N[C@@H](CC(C)C)C(=O)N[C@@H](CC(C)C)C(=O)N[C@H](C(=O)N[C@@H](CC(=O)O)C(=O)N[C@@H](C)C(=O)N[C@@H](CC(=O)O)C(=O)N[C@@H](CCC(=O)O)C(=O)N[C@@H](CSSCCOC(=O)N(C)Cc1ccc(-c2[nH]c3cc(F)cc4c3c2CCNC4=O)cc1)C(=O)NCC(=O)O)C(C)C)[C@@H](C)O)[C@@H](C)O [Example 15] (H-AEQNPIYWARYADWLFTTPLLLLDLALLVDADEC(X19)G-OH; N-terminus and C-terminus assumed) | 6.47 nM |
| CC(C)C[C@H](NC(=O)[C@H](Cc1ccc(O)cc1)NC(=O)[C@H](C)NC(=O)[C@H](CCCNC(=N)N)NC(=O)[C@H](Cc1c[nH]c2ccccc12)NC(=O)[C@@H]1CCCN1C(=O)[C@H](CC(N)=O)NC(=O)[C@H](CCC(N)=O)NC(=O)[C@H](CC(=O)O)NC(=O)[C@H](CC(=O)O)NC(=O)[C@H](C)N)C(=O)N[C@@H](CC(=O)O)C(=O)N[C@@H](CC(C)C)C(=O)N[C@@H](CC(C)C)C(=O)N[C@@H](Cc1ccccc1)C(=O)N1CCC[C@H]1C(=O)N[C@H](C(=O)N[C@@H](CC(=O)O)C(=O)N[C@H](C(=O)N[C@@H](CC(C)C)C(=O)N[C@@H](CC(C)C)C(=O)N[C@@H](CC(C)C)C(=O)N[C@@H](CC(=O)O)C(=O)N[C@@H](CC(C)C)C(=O)N[C@@H](CC(C)C)C(=O)N[C@@H](Cc1c[nH]c2ccccc12)C(=O)N[C@@H](CC(=O)O)C(=O)N[C@@H](C)C(=O)N[C@@H](CC(=O)O)C(=O)N[C@@H](CCC(=O)O)C(=O)N[C@@H](CSS[C@H](C)COC(=O)N(C)Cc1ccc(-c2[nH]c3cc(F)cc4c3c2CCNC4=O)cc1)C(=O)NCC(=O)O)[C@@H](C)O)[C@@H](C)O [Example 20] | 1.7 nM |
